In patent publication US20260028352A1, “MACROCYCLIC IMIDAZO [1,2-B] PYRIDAZINE DERIVATIVE, PREPARATION METHOD THEREFOR, AND USE THEREOF” (SUZHOU LANGRUI BIOPHARMACEUTICAL CO., LTD., priority 2022, published 2026):
Where two headings read alike, the source gives them in different places.

What was measured:
[1] = tested on: Ba/F3-TPM3-NTRK1-G595R cells; assay: Growth inhibition of Ba/F3-TPM3-NTRK1-G595R cells (Cell Titer-Glo); format: cell-based; settings: 72 hours, CTG; read-out: inhibitory activity IC50 Ba/F3-TPM3-NTRK1-G595R
Method in brief: (§1)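 Ba/F3 cells were exposed for 72 hours to serially DMSO-diluted compound at a top final concentration of 10 μM. Viability was read by Cell Titer-Glo luminescence after the plate equilibrated 30 min at room temperature and was then shaken 1 hour in the dark at room temperature.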

TRKA^F589L kinase = TRKA^F589L kinase (Homo sapiens (Human), UniProt P04629, F589L); assay: Inhibitory activity against TRKA(F589L) kinase (Caliper mobility shift); format: biochemical; settings: in vitro kinase assay
Chain of TRKA^F589L kinase (P04629 33-796 F589L): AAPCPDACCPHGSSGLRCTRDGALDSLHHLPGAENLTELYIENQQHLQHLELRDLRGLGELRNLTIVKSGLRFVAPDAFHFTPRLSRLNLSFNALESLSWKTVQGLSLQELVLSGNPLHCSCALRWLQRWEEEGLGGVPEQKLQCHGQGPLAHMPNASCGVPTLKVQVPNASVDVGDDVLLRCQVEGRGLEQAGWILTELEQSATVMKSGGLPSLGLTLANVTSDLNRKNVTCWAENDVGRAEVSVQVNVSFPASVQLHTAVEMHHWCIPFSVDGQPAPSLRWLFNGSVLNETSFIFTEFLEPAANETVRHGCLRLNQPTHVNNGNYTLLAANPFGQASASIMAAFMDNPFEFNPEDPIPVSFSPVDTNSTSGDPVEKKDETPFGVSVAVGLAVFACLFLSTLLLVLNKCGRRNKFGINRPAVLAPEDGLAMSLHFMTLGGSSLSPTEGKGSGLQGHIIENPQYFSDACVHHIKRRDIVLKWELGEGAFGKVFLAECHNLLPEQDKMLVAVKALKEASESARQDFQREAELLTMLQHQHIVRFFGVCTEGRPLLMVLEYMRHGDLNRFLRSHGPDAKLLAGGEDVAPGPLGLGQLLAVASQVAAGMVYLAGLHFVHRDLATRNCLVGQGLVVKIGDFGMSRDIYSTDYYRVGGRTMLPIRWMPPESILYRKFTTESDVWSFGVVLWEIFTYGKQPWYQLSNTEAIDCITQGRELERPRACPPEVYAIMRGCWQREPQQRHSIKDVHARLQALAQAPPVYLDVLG
Method: Kinase Assay Process: 1× Kinase buffer was prepared. […] The compounds were serially diluted into 10 concentrations ([…], 0.15, and 0.05 nM) using a Precision 3-fold dilution method. By using the Echo550 liquid handler, 250 nL of the 100-fold final concentration compound was transferred to an OptiPlate-384F plate. a 2.5× final concentration kinase solution was prepared using 1× Kinase buffer. 10 μL of the 2.5× final concentration kinase solution was added to the compound wells and the positive control wells, and 10 μL of 1× Kinase buffer was added to the negative control wells. The plate was centrifuged at 1000 rpm for 30 seconds, vortexed for mixing, and then incubated at room temperature for 10 minutes. A mixture of 5/3× final concentration of ATP and Kinase Substrate 22 was prepared using 1× Kinase buffer. 15 μL of the mixture of the 5/3× final concentration ATP and the substrate was added to initiate the reaction, the 384-well plate was centrifuged at 1000 rpm for 30 seconds, vortexed for mixing, and incubated at room temperature for the required time. 30 μL of the termination solution was added to stop the kinase reaction, the plate was centrifuged at 1000 rpm for 30 seconds, and vortexed for mixing. The conversion rate was measured using the Caliper EZ Reader.
Data Analysis: the inhibition rate was calculated as follows:
% Inhibition=(Conversion %_max−conversion %_sample)÷(Conversion %_max−conversion %_min)×100
Conversion %_sample is the conversion rate reading for the sample; Conversion %_min is the average value of the negative control wells, representing the conversion rate for wells without enzyme activity: Conversion %_max is the average value of the positive control wells, representing the conversion rate for wells without compound inhibition. A dose-response curve was fitted using the log concentration of the compound as the X-axis and the percentage inhibition as the Y-axis. The log(inhibitor) vs. response-variable slope of the GraphPad Prism 5 software was used to fit the dose-response curve, and the IC50 value for each compound was obtained. The calculation formula is:
Y=Bottom+(Top−Bottom)/(1+10^((Log IC50−X)*HillSlope)).
wherein X represents the concentration of the compound to be tested; Y represents the inhibition rate at the concentration X: Top refers to the maximum response: Bottom refers to the baseline response; HillSlope refers to the slope of the curve (i.e., the gradient).

[2] = ether bond
[3] = tested on: Ba/F3-TPM3-NTRK1-G667C cells; assay: Growth inhibition of Ba/F3-TPM3-NTRK1-G667C cells (Cell Titer-Glo); format: cell-based; settings: for IC50: 72 hours, CTG, read-out: inhibitory activity IC50 Ba/F3-TPM3-NTRK1-G667C
Method in brief: as §1

TRKA^WT kinase = TRKA^WT kinase (Homo sapiens (Human), UniProt P04629); assay: Inhibitory activity against TRKA WT kinase (Caliper mobility shift); format: biochemical; settings: in vitro kinase assay
Chain of TRKA^WT kinase (P04629 33-796): as the sequence (P04629 33-796 F589L) above, with L557F counted along it
Method in brief: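 Kinase preincubated 10 min at room temperature with compound (10-point 3-fold series from 1000 nM), then reaction started with ATP and Kinase Substrate 22. Substrate conversion read by Caliper mobility shift; IC50 from variable-slope log(inhibitor)–response fit of % inhibition versus no-enzyme and no-compound controls.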

[4] = tested on: Ba/F3-TPM3-NTRK1-WT cells; assay: Growth inhibition of Ba/F3-TPM3-NTRK1-WT cells (Cell Titer-Glo); format: cell-based; settings: 72 hours, CTG; read-out: inhibitory activity IC50 Ba/F3-TPM3-NTRK1-WT
Method in brief: as §1

| Compound | IC50 [1] [nM] | IC50 (TRKA^F589L kinase) [nM] | ring closure, isolated yield ([2]; from OCc1ccnc(-c2cnc3ccc(NCc4ccccc4O)nn23)c1, 13-membered ring, SOCl2, K2CO3, DCM/DMF, 22.8 mM, 90.0 °C, 2.0 h, 2 steps) [%] | IC50 [3] [nM] | IC50 (TRKA^WT kinase) [nM] | IC50 [4] [nM] | ring closure, isolated yield ([2]; from OCCc1ccnc(-c2cnc3ccc(NCc4ccccc4O)nn23)c1, 14-membered ring, PPh3/DIAD, THF, 16.6 mM, 60.0 °C, 2.0 h) [%] | ring closure, isolated yield ([2]; from OCc1ccnc(-c2cnc3ccc(NCc4cc(F)ccc4O)nn23)c1, 13-membered ring, SOCl2, K2CO3, DCM/DMF, 20.3 mM, 90.0 °C, 2.0 h, 2 steps) [%] | ring closure, isolated yield ([2]; from CC(Nc1ccc2ncc(-c3cc(CO)ccn3)n2n1)c1cc(F)ccc1O, 13-membered ring, SOCl2, K2CO3, DCM/DMF, 15.2 mM, 90.0 °C, 2.0 h, 2 steps) [%] | ring closure, isolated yield ([2]; from CC(Nc1ccc2ncc(-c3cncc(CO)c3)n2n1)c1cc(F)ccc1O, 13-membered ring, SOCl2, K2CO3, DCM/DMF, 15.7 mM, 90.0 °C, 2.0 h, 2 steps) [%] | ring closure, isolated yield ([2]; from CC(Nc1ccc2ncc(-c3cc(CO)ccn3)n2n1)c1cc(F)cc(F)c1O, 13-membered ring, SOCl2, K2CO3, DCM/DMF, 15.2 mM, 90.0 °C, 1.5 h, 2 steps) [%] | inhibitory ability compared with TPX-0005 ([3]; comparison in words) |
| --- | --- | --- | --- | --- | --- | --- | --- | --- | --- | --- | --- | --- |
| c1ccc2c(c1)CNc1ccc3ncc(n3n1)-c1cc(ccn1)CO2 [Example I-6, (E)-4-oxa-7-aza-1(3,6)-imidazo[1,2-b]pyridazina-2(2,4)-pyridina-5(1,2)-benzenacycloheptaphane] | 527 | 6.1 | 13.6 | 526 | 2.76 | 18 |  |  |  |  |  |  |
| c1ccc2c(c1)CNc1ccc3ncc(n3n1)-c1cc(ccn1)CCO2 [Example I-8, (E)-6-oxa-3-aza-2(3,6)-imidazo[1,2-b]pyridazina-1(2,4)-pyridina-5(1,2)-benzenacyclooctaphane] | 562 | < 5 |  | 562 | 2.46 | 3.4 | 34 |  |  |  |  |  |
| Fc1ccc2c(c1)CNc1ccc3ncc(n3n1)-c1cc(ccn1)CO2 [Example I-5, (E)-5^4-fluoro-4-oxa-7-aza-1(3,6)-imidazo[1,2-b]pyridazina-2(2,4)-pyridina-5(1,2)-benzenacycloheptaphane] | 91.5 | < 5 |  | 94 | 1.36 | 7.94 |  | 11.6 |  |  |  |  |
| CC1Nc2ccc3ncc(n3n2)-c2cc(ccn2)COc2ccc(F)cc21 (stereo not shown) [Example I-1, (E)-5^4-fluoro-6-methyl-4-oxa-7-aza-1(3,6)-imidazo[1,2-b]pyridazina-2(2,4)-pyridina-5(1,2)-benzenacycloheptaphane] | 72.2 | 5.4 |  | 91.2 | 2.57 | 3.66 |  |  | 11.3 |  |  |  |
| CC1Nc2ccc3ncc(n3n2)-c2cncc(c2)COc2ccc(F)cc21 (stereo not shown) [Example I-7, (E)-5^4-fluoro-6-methyl-4-oxa-7-aza-1(3,6)-imidazo[1,2-b]pyridazine-2(3,5)-pyridina-5(1,2)-benzenacycloheptaphane] | 198 | < 5 |  | 220 | < 3 | 2.8 |  |  |  | 22.6 |  |  |
| CC1Nc2ccc3ncc(n3n2)-c2cc(ccn2)COc2c(F)cc(F)cc21 (stereo not shown) [Example I-2, (E)-5^4,5^6-difluoro-6-methyl-4-oxa-7-aza-1(3,6)-imidazo[1,2-b]pyridazine-2(2,4)-pyridina-5(1,2)-benzenacycloheptaphane] | 245 | 6.2 |  | 32.5 | 2.59 | 24.8 |  |  |  |  | 11.2 | stronger than that of compound TPX-0005 |
